From PubChem BioAssay AID651717 (Broad Institute, 2012)

What follows are compounds tested on mESC Bmi1-luciferase reporter, firefly/renilla ratio, 24 h (assay: Bmi1-luciferase reporter activators in mESC, dose response, esBAF inhibitor project, mouse embryonic stem cells, cherry-pick (AID 651717);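 further: luciferase knocked into Bmi1 locus with EF-1a renilla as cell number control; rising ratio signals esBAF inhibition which derepresses Bmi1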).

`COc1ccc2[nH]cc(C(=O)CNc3nc(C)cs3)c2c1` and `Cc1csc(NC(=O)Cc2c(F)cccc2Cl)n1` are within 1.5-fold of each other in AC40: 10.3 µM for the first, 8.57 µM for the second.

Compared with `O=C(NC1CCCC1)c1cc(-c2ccc(Cl)c(Cl)c2)on1`, `O=C(NC1CCCC1)c1cc(-c2ccccc2O)on1` is 1.7-fold lower in AC40: 2.8 µM for the first, 1.65 µM for the second.

Going from `Cc1ccc(NC(=O)NC(=O)N(c2ccccc2)S(C)(=O)=O)cc1` to `CC(=O)c1ccc(NC(=O)C2CC(=O)N(Cc3ccccc3)C2)cc1` (stereo not drawn), the AC40 falls from 7.14 µM to 3.25 µM (2.2-fold).

Going from `CC(=O)c1ccc(S(=O)(=O)N(Cc2cc3cc4c(cc3[nH]c2=O)OCCO4)CC2CCCO2)cc1` (stereo not drawn) to `O=C(c1cc2ccccc2oc1=O)N(Cc1cccs1)C1CCS(=O)(=O)C1` (stereo not drawn), the AC40 falls from 15.2 µM to 3.94 µM (3.9-fold).

Going from `Cc1noc(C)c1-c1csc(N2CCC(C(N)=O)CC2)n1` to `CCC(=O)c1ccc(N2CCC(C)CC2)c(F)c1`, the AC40 rises from 0.444 µM to 2.04 µM (4.6-fold).

First: COc1cc(OC)c2c(-c3cccc(/C=C/c4ccc(F)cc4)c3)cc(=O)oc2c1
Second: COc1ccc(NC(=O)c2cc3sccc3n2Cc2ccc(F)cc2)cc1OC
The AC40 of the first is 4-fold lower: 3.49 µM for the first, 13.8 µM for the second.

Going from `Cc1ccc(NC(=O)C2CCCN(c3ncccn3)C2)cc1F` (stereo not drawn) to `Cc1ccc(NC(=O)C2CCCN(C(=O)c3ccc(Cl)cc3)C2)cc1C` (stereo not drawn), the AC40 rises from 1.16 µM to 6.09 µM (5.2-fold).

Compared with `CN=Cc1cc(-c2ccccc2)sc1O`, `Cc1cc(C)c2nc(-c3ccccc3)ccc2c1` is 8.6-fold lower in AC40: 12.9 µM for the first, 1.5 µM for the second.

`COc1ccc(CNc2nc(NCc3ccc(OC)cc3)n(C(=O)c3ccccc3[N+](=O)[O-])n2)cc1` and `COc1ccc(CC(=O)Nc2ccc(-c3cn4ccc(C)cc4n3)cc2)cc1` are the same in AC40: 18.8 µM for the first, 18.8 µM for the second.

`COc1ccc(C(=O)CCc2ccccc2O)c(OC)c1` and `COc1ccccc1CCC(=O)Nc1nc2ccccc2[nH]1` are within 1.5-fold of each other in AC40: 3.58 µM for the first, 3 µM for the second.

Going from `CCc1nnc(NC(=O)c2ccc3c(=O)n4c(nc3c2)CCC4)s1` to `Cc1ccc(NC(=O)c2ccc3c(=O)n4c(nc3c2)CCC4)cc1F`, the AC40 falls from 2.51 µM to 0.945 µM (2.7-fold).

Compared with `Cc1nc2c(sc3nc4c(cc32)COC(C)(C)C4)c(=O)n1Cc1ccccc1`, `CC(=O)Nc1ccc2nc(C)n(Cc3ccc(Cl)cc3)c(=O)c2c1` is 3.6-fold higher in AC40: 1.18 µM for the first, 4.21 µM for the second.

`CC(C)(O)c1cc2ccc(C#Cc3ccsc3)cc2c(=O)o1` and `Nc1ccc(C#Cc2ccc3c(=O)c4ccccc4oc3c2)cc1` are within 1.5-fold of each other in AC40: 3.42 µM for the first, 3.64 µM for the second.

Compared with `Cc1cc(Cl)c(O)c(-n2nc3ccccc3n2)c1`, `O=C(Nc1ccc(Cl)c(Cl)c1)Nc1ccccc1O` is 5-fold lower in AC40: 5.74 µM for the first, 1.14 µM for the second.

Compared with `O=C1C(=C2CCc3ccccc32)Cc2ccccc21`, `O=C(c1ccc2ccccc2c1)N1CCc2ccccc21` is 23-fold higher in AC40: 0.363 µM for the first, 8.41 µM for the second.

Going from `NC(N)=NC(=O)c1nc(Cl)c(N2CCCCCC2)nc1N` to `Oc1ccccc1C=NN1CCCCCC1`, the AC40 falls from 3.13 µM to 1.93 µM (1.6-fold).

`COc1ccc(-c2csc(Nc3cc(C)ccn3)n2)cc1C` and `COc1ccc(-c2csc(Nc3cccc(C)n3)n2)cc1OC` are within 1.5-fold of each other in AC40: 1.91 µM for the first, 1.44 µM for the second.

Compared with `Fc1ccccc1NC(=S)N1CCC(c2ccccc2)C1` (stereo not drawn), `COc1ccccc1NC(=O)CSc1nc2sc3c(c2c(=O)n1-c1ccccc1)CCN(C)C3` is 37-fold higher in AC40: 0.517 µM for the first, 19.1 µM for the second.

First: COc1cccc(NC(=O)c2sc3nc4n(c(=O)c3c2C)CCC4)c1
Second: COc1cccc(C(=O)Nc2ccc(Cl)c(C(F)(F)F)c2)c1
The AC40 of the first is 2-fold lower: 2.73 µM for the first, 5.59 µM for the second.

`COC(=O)c1ccc(CN2C(=O)NC3(CCCCC3)C2=O)cc1` and `N/C(=N\OC(=O)C1CCCCC1)c1ccc(Cl)cc1` are within 1.5-fold of each other in AC40: 7.87 µM for the first, 6.24 µM for the second.

First: Cc1ccc(O)c(NC(=O)c2ccc3c(c2)C(=O)N(CC(C)C)C3=O)c1
Second: O=C(Nc1ccc2c(c1)COC2=O)c1ccc(Cl)c(Cl)c1
The AC40 of the first is 2-fold lower: 1.23 µM for the first, 2.46 µM for the second.

Compared with `Nc1cc2c(cc1Cl)-c1ccc(Cl)cc1C2`, `Cc1ccc(Cl)cc1-c1cc(C(=O)Nc2ccc(F)cc2)[nH]n1` is 2.3-fold lower in AC40: 11.3 µM for the first, 4.92 µM for the second.

`Cc1nc(-c2ccc(Cl)cc2)sc1C1(C)CC(c2cccnc2)=NO1` (stereo not drawn) and `Cc1cccc(-c2noc(Cc3ccc(Cl)cc3)n2)c1` are within 1.5-fold of each other in AC40: 5.57 µM for the first, 5.96 µM for the second.

First: Cn1c(SCc2ccccc2)nnc1-c1c[nH]c2ccccc12
Second: Cc1nc(Nc2ccccc2)sc1C(=O)c1ccc(F)cc1
The AC40 of the first is 4.6-fold higher: 17.9 µM for the first, 3.93 µM for the second.

Compared with `CN(C)c1ccc(C=NN2CCCCCC2)cc1`, `O=C(CCc1nnc(C2(c3ccc(Cl)cc3)CCC2)o1)N1CCCC1` is higher in AC40: under 0.26 µM for the first, 3.99 µM for the second.

Compared with `C/C(=N\OCc1ccc(C#N)cc1)c1ccc(S(=O)(=O)N(C)C)cc1`, `COc1ccc(/C=C/C(=O)Oc2cccc(/C=N/NC(=O)Cc3ccc(Br)cc3)c2)cc1` is 1.7-fold lower in AC40: 7.91 µM for the first, 4.57 µM for the second.

Compared with `O=C(Nc1cccc(F)c1)c1c(O)c2ccccc2[nH]c1=O`, `CN(CC(=O)Nc1cccc(F)c1)C(=O)c1sc2ccccc2c1Cl` is 18-fold higher in AC40: 1.29 µM for the first, 23.3 µM for the second.

Compared with `CN(Cc1nccs1)C(=O)c1ccc2nc(Cc3ccccc3F)oc2c1`, `O=C(Nc1ccc2oc(-c3ccccc3)nc2c1)c1cccs1` is 1.7-fold higher in AC40: 0.952 µM for the first, 1.58 µM for the second.

First: CC(C)c1ccc(-c2nn(-c3ccccc3)cc2C2C(C#N)=C(N)OC3=C2C(=O)CC(C)(C)C3)cc1 (stereo not drawn)
Second: O=C(c1cc(-c2ccc(Cl)cc2)on1)N1CCN(c2ccccc2)CC1
The AC40 of the first is 4.5-fold higher: 29.1 µM for the first, 6.4 µM for the second.

Going from `O=C(Nc1ccc(Cl)c(Cl)c1)c1ccccc1NC(=O)C1CC=CCC1C(=O)O` (stereo not drawn) to `CCc1ccccc1NC(=O)c1cc(-c2cccc(O)c2)on1`, the AC40 falls from 7.6 µM to 5.03 µM (1.5-fold).

Compared with `CN(C(=O)c1ccc2c(Cl)c3c(nc2c1)CCC3)c1ccccc1`, `COc1ccccc1C(=O)Nc1sc2c(c1C#N)CCC2` is 3.1-fold lower in AC40: 6.63 µM for the first, 2.15 µM for the second.

First: COc1ccccc1C(=O)Oc1ccccc1C(=O)Nc1ccccc1
Second: O=C(Nc1ccc(Oc2cccnc2)cc1)c1ccccc1F
The AC40 of the first is 2.5-fold lower: 5.18 µM for the first, 12.7 µM for the second.

First: Cc1cc(NC(=O)Nc2ccc3c(ccn3C)c2)sn1
Second: Cc1cccc(NC(=O)Nc2cccc(F)c2)n1
The AC40 of the first is 1.6-fold lower: 5.14 µM for the first, 8.39 µM for the second.

Going from `COc1ccc(F)cc1-c1cc(C(=O)Nc2cccnc2)[nH]n1` to `c1ccc(-c2csc(Nc3cccnc3)n2)nc1`, the AC40 rises from 3.06 µM to 4.74 µM (1.5-fold).

`CCN(C(=O)CN1C(=O)S/C(=C\C=C\c2ccccc2)C1=O)C1CCS(=O)(=O)C1` (stereo not drawn) and `Cc1ccsc1CN(C)C(=O)C1CCC(=O)N(CCc2cccc(F)c2)C1` (stereo not drawn) are within 1.5-fold of each other in AC40: 3.85 µM for the first, 5.77 µM for the second.

Compared with `OC(c1ccc(F)c(F)c1)c1nc(-c2ccc3ccccc3c2)cs1` (stereo not drawn), `c1ccc(Nc2nc(-c3ccncc3)cs2)cc1` is 7.5-fold lower in AC40: 20.3 µM for the first, 2.71 µM for the second.

Going from `COC(=O)/C(=C1\Oc2ccc(C(C)(C)C)cc2S1)C(F)(F)F` to `COc1ccc(Nc2nc(C)c(C(C)=O)s2)cc1`, the AC40 rises from 1.45 µM to 4.13 µM (2.8-fold).

First: O=c1/c(=C\c2cccnc2)sc2nc3ccccc3n12
Second: COc1cc(/C=C/c2nc3ccccc3c(=O)[nH]2)ccc1OC(F)F
The AC40 of the first is 6.2-fold higher: 9.85 µM for the first, 1.6 µM for the second.

Compared with `CCCCc1nc2cc(C(=O)N3CCCCC3C(=O)OC)ccc2o1` (stereo not drawn), `COc1cc(SC)ccc1C(=O)NCC1CCCCC1` is 4.3-fold lower in AC40: 13 µM for the first, 3.03 µM for the second.

First: Clc1cccc(Cl)c1Cn1nnc(-c2cccs2)n1
Second: Clc1ccc(-n2nnc(-c3ncc[nH]3)n2)cc1Cl
The AC40 of the first is 3.5-fold lower: 3.31 µM for the first, 11.6 µM for the second.

First: Cc1cccc(N=[N+]([O-])c2cccc(C)n2)n1
Second: Nc1cccc(N=[N+]([O-])c2cccc(N)c2)c1
The AC40 of the first is 3-fold higher: 6.4 µM for the first, 2.11 µM for the second.

Compared with `O=C(N/N=C/c1ccccc1)c1ccc(NC(=O)c2ccc(F)cc2)cc1`, `Cc1cccc(NC(=O)c2ccccn2)c1C` is 2.5-fold higher in AC40: 1.46 µM for the first, 3.69 µM for the second.

`COc1cc2[nH]c(C(=O)N3CCc4ccccc43)cc2c(OC)c1OC` and `Cc1ccc(OCc2cc(C(=O)N(C)CCc3ccccn3)no2)cc1C` are within 1.5-fold of each other in AC40: 2.77 µM for the first, 2.28 µM for the second.

Compared with `CS(=O)(=O)N1CCN(c2nc3ccccc3s2)CC1`, `Cc1ccc(C)c(N2CCN(C(=O)CCc3nc(-c4cccc(Cl)c4)no3)CC2)c1` is 2.3-fold higher in AC40: 1.24 µM for the first, 2.83 µM for the second.
